Experimental data taken from the supplement of paper PMC4862054.

What was measured:
HCC1599 = assay: drug sensitivity score (DSS), CellTiter-Glo (DSS (AUC-based score)); higher = stronger drug effect (viability inhibition or cytotoxicity); extreme values may be limits of the assay; conditions: incubation time: 72 h
Summary of the method: (§1)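 Plates with 384 wells held compound at 5 concentrations in 10-fold steps over a 10,000-fold range specific to each compound. Breast cancer cell lines were added in 20 µl suspension and incubated 72 h, then read for CellTox Green and CellTiter-Glo signals, with each plate normalised to 0.1 % DMSO and a positive kill control. The drug sensitivity score is based on the area under the fitted dose-response curve.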

MFM-223 = assay: as above; conditions: incubation time: 72 h
Summary of the method: as §1

SK-BR-3 = assay: as above; conditions: incubation time: 72 h
Summary of the method: as §1

BT-549 = assay: as above; conditions: incubation time: 72 h
Summary of the method: as §1

HCC1143 = assay: as above; conditions: incubation time: 72 h
Summary of the method: as §1

CAL-148 = assay: as above; conditions: incubation time: 72 h
Summary of the method: as §1

HDQ-P1 = assay: as above; conditions: incubation time: 72 h
Summary of the method: as §1

CAL-85-1 = assay: as above; conditions: incubation time: 72 h
Summary of the method: as §1

CAL-51 = assay: as above; conditions: incubation time: 72 h
Summary of the method: as §1

CAL-120 [1] = assay: as above; conditions: incubation time: 72 h
Summary of the method: as §1

MDA-MB-436 = assay: as above; conditions: incubation time: 72 h
Summary of the method: as §1

MDA-MB-231 = assay: as above; conditions: incubation time: 72 h
Summary of the method: as §1

MCF-10A = assay: as above; conditions: incubation time: 72 h
Summary of the method: as §1

DU-4475 = assay: as above; conditions: incubation time: 72 h
Summary of the method: as §1

BT-474 = assay: as above; conditions: incubation time: 72 h
Summary of the method: as §1

MDA-MB-468 [2] = assay: as above; conditions: incubation time: 72 h
Summary of the method: as §1

Hs578T = assay: as above; conditions: incubation time: 72 h
Summary of the method: as §1

HCC1937 = assay: as above; conditions: incubation time: 72 h
Summary of the method: as §1

MDA-MB-453 = assay: as above; conditions: incubation time: 72 h
Summary of the method: as §1

MDA-MB-468 [3] = conditions: 72 h
Summary of the method: (§2)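 Breast cancer cell lines (20 µl suspension) were seeded into 384-well plates holding compound at 5 concentrations in 10-fold steps over a compound-specific 10,000-fold range, then incubated 72 h. Cell death was read first by CellTox Green fluorescence (485/520 nm), then viability by CellTiter-Glo luminescence after 10 min at room temperature. Each plate was normalised to 0.1 % DMSO and a positive kill control. EC50 was fitted from the dose-response curves and censored at the top concentration.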

CAL-120 [4] = conditions: 72 h
Summary of the method: as §2

EC50, CellTiter-Glo (MDA-MB-468 [3]) [nM] | SMILES | drug sensitivity score (HCC1599) | drug sensitivity score (MFM-223) | drug sensitivity score (SK-BR-3) | drug sensitivity score (BT-549) | drug sensitivity score (HCC1143) | drug sensitivity score (CAL-148) | drug sensitivity score (HDQ-P1) | drug sensitivity score (CAL-85-1) | drug sensitivity score (CAL-51) | drug sensitivity score (CAL-120 [1]) | drug sensitivity score (MDA-MB-436) | drug sensitivity score (MDA-MB-231) | drug sensitivity score (MCF-10A) | drug sensitivity score (DU-4475) | drug sensitivity score (BT-474) | drug sensitivity score (MDA-MB-468 [2]) | drug sensitivity score (Hs578T) | drug sensitivity score (HCC1937) | drug sensitivity score (MDA-MB-453) | EC50, CellTiter-Glo (CAL-120 [4]) [nM]
– | CN1CCC(COc2cnc(-c3cccc(Cn4nc(-c5cccc(C#N)c5)ccc4=O)c3)nc2)CC1 | 0 | 0 | 0 | 0 | 0 | 0 | 0 | 0 | 0 | 0 | 1.23 | 0 | 0 | 0 | 0 | 0 | 0 | 0 | 0 | –
158 | CN(C)C/C=C/C(=O)Nc1cc2c(Nc3ccc(F)c(Cl)c3)ncnc2cc1O[C@H]1CCOC1 [Afatinib] | 0 | 0 | 17.8 | 0.0448 | 0 | 3.9 | 8.44 | 6.39 | 0 | 0 | 0 | 0 | 17.4 | 0 | 0 | 2.66 | 0 | 0 | 4.69 | –
26.9 | COc1cc(Nc2ncc3c(n2)-c2ccc(Cl)cc2C(c2c(F)cccc2OC)=NC3)ccc1C(=O)O [Alisertib] | 0 | 10.8 | 0 | 12.7 | 8.44 | 7.08 | 3.21 | 0 | 12.8 | 5.92 | 11.8 | 4.67 | 0 | 9.45 | 8.02 | 23.4 | 5.73 | 3.43 | 0 | 338
261 | CN1CC[C@H](c2c(O)cc(O)c3c(=O)cc(-c4ccccc4Cl)oc23)[C@H](O)C1 [Alvocidib] | 14.7 | 16.1 | 19.8 | 17.7 | 14.9 | 11.4 | 16.5 | 16.3 | 19 | 14.1 | 18.8 | 19.1 | 16.2 | 17.3 | 16.9 | 18.1 | 16.2 | 13.2 | 12.8 | 167
> 1000 | Nc1nc(Cl)nc2c1ncn2[C@H]1C[C@H](O)[C@@H](CO)O1 [Cladribine] | 0 | 0 | 0 | 6.43 | 0 | 0 | 0 | 0 | 0 | 1.39 | 0 | 0 | 0 | 0 | 0 | 0.301 | 0 | 0 | 0 | 445
618 | Nc1ccn([C@@H]2O[C@H](CO)[C@@H](O)[C@@H]2O)c(=O)n1 [Cytarabine] | 0 | 0 | 12.2 | 7.56 | 3.36 | 11.3 | 1.06 | 0 | 13.4 | 0.601 | 10.5 | 0 | 0 | 3.25 | 0.361 | 4.8 | 2.8 | 0 | 0 | > 10000
1.54 | Cc1c2oc3c(C)ccc(C(=O)N[C@@H]4C(=O)N[C@H](C(C)C)C(=O)N5CCC[C@H]5C(=O)N(C)CC(=O)N(C)[C@@H](C(C)C)C(=O)O[C@@H]4C)c3nc-2c(C(=O)N[C@@H]2C(=O)N[C@H](C(C)C)C(=O)N3CCC[C@H]3C(=O)N(C)CC(=O)N(C)[C@@H](C(C)C)C(=O)O[C@@H]2C)c(N)c1=O [Dactinomycin] | 16.4 | 15 | 21.3 | 31.3 | 22.4 | 25.7 | 24.4 | 22.8 | 26.4 | 17.8 | 21 | 22.4 | 23.6 | 30.3 | 21 | 32.2 | 22.5 | 21.7 | 18.7 | 10.2
– | Cc1ccc(F)c(NC(=O)Nc2ccc(-c3cccc4[nH]nc(N)c34)cc2)c1 [Linifanib] | 0 | 0 | 0 | 0 | 0 | 0 | 0 | 0 | 1.94 | 0 | 0 | 0 | 0 | 0 | 0 | 0 | 0 | 0 | 0 | –
– | CC(=O)O[C@]1(C(C)=O)CC[C@H]2[C@@H]3C=C(C)C4=CC(=O)CC[C@]4(C)[C@H]3CC[C@@]21C [Megestrol acetate] | 0 | 0 | 0 | 0 | 0 | 0 | 0 | 0 | 0 | 0 | 0 | 0 | 0 | 0 | 0 | 0 | 0 | 0 | 0 | –
– | S=c1[nH]cnc2nc[nH]c12 [Mercaptopurine] | 5.32 | 0 | 0 | 0 | 0 | 0 | 9.67 | 1.24 | 0 | 4.08 | 0.565 | 7.35 | 0 | 4 | 5.51 | 0 | 6.04 | 8.73 | 0 | 4710
– | Clc1ccc(C(c2ccccc2Cl)C(Cl)Cl)cc1 (stereo unspecified) [Mitotane] | 0 | 0 | 0 | 0 | 0 | 0 | 0 | 0 | 0 | 0 | 0 | 0 | 0 | 0 | 0 | 0 | 0 | 0 | 0 | –
– | CCN1CCN(c2ccc(Nc3cc(N(C)C(=O)Nc4c(Cl)c(OC)cc(OC)c4Cl)ncn3)cc2)CC1 [NVP-BGJ398] | 0 | 7.35 | 0 | 0 | 0 | 0 | 0 | 0 | 0 | 2.55 | 0 | 0 | 0 | 0 | 0 | 0 | 0.39 | 0 | 0 | 252
– | OC[C@H]1O[C@@H](n2cnc3c2N=CNC[C@H]3O)C[C@@H]1O [Pentostatin] | 0 | 0 | 0 | 0 | 0 | 0 | 0 | 0 | 0 | 0 | 0 | 0 | 0 | 0 | 0.0029 | 0 | 0 | 0 | 0 | –
– | C=CC[C@@H]1/C=C(\C)C[C@H](C)C[C@H](OC)[C@H]2O[C@@](O)(C(=O)C(=O)N3CCCC[C@H]3C(=O)O[C@H](/C(C)=C/[C@@H]3CC[C@@H](O)[C@H](OC)C3)[C@H](C)[C@@H](O)CC1=O)[C@H](C)C[C@@H]2OC [Tacrolimus] | 0 | 0 | 0 | 0 | 0 | 0 | 0 | 0 | 0 | 0 | 0 | 0 | 0 | 0 | 0.128 | 0 | 0 | 0 | 0 | –
– | O=C(c1ccc(C(=O)N2CCC(N3CCCC3)CC2)c(Nc2ccccc2)c1)N1CCC(N2CCCC2)CC1 [UNC1215] | 0 | 0 | 0 | 0 | 0 | 0 | 0 | 0 | 0 | 0 | 0 | 0 | 0 | 0 | 0 | 0 | 0 | 0 | 0 | –
– | C[C@]1(c2nc3c(C(N)=O)cccc3[nH]2)CCCN1 [Veliparib] | 0 | 0 | 0 | 0 | 0 | 0 | 0 | 0 | 3.97 | 0 | 0 | 0 | 0 | 0 | 0.587 | 0 | 0 | 0 | 0 | –
– | CS(=O)(=O)c1ccc(C(=O)Nc2ccc(Cl)c(-c3ccccn3)c2)c(Cl)c1 [Vismodegib] | 0 | 0 | 0 | 0 | 0 | 0 | 0 | 0 | 0 | 0 | 0 | 0 | 0 | 0 | 0 | 0 | 0 | 0 | 0 | –
